Data reported in patent US12545652B2, “Crystalline forms of a TYK2 inhibitor” (Sareum Limited, priority 2020, dated 2026).
Converted amounts (≈) assume the structure as drawn.

Experiments:
Assay type in all cases: physicochemical
[1] = Solubility at 25° C. by HPLC of filtrates after equilibration of Form A in solvents; details: for solubility: 25 °C, organic solvent or mixture, thermodynamic from solid
[2] = Dynamic vapour sorption (DVS); details: 25° C.
Experimental: Sorption isotherms were obtained using a Hiden Isochema moisture sorption analyser (model IGAsorp), controlled by IGAsorp Systems Software V6.50.48. The sample was maintained at a constant temperature (25° C.) by the instrument controls. The humidity was controlled by mixing streams of dry and wet nitrogen, with a total flow of 250 ml·min^−1. The instrument was verified for relative humidity content by measuring three calibrated Rotronic salt solutions (10-50-88%). The weight change of the sample was monitored as a function of humidity by a microbalance (accuracy +/−0.005 mg). A defined amount of sample was placed in a tared mesh stainless steel basket under ambient conditions. A full experimental cycle typically consisted of three scans (sorption, desorption and sorption) at a constant temperature (25° C.) and 10% RH intervals over a 0-90% range (60 minutes for each humidity level).

[3] = Anti-solvent addition crystallisation at 60° C., observations and form fate by XRPD
Experimental: The equilibration of Form A in a range of solvents with thermal modulation indicated a range of suitable solvents and anti-solvents. Consequently, Form A was dissolved in a range of four solvents at an elevated temperature, clarified and charged with anti-solvent at the elevated temperature to assess the propensity of the compound towards anti-solvent-driven crystallisation.
2-(2,6-dichlorophenyl)-5-[4-(1,1-dioxo-1,4-thiazinane-4-carbonyl)anilino]oxazole-4-carboxamide Form A, 4×150-152 mg, was weighed into four crystallisation tubes. Four different solvents (see Table 8) were then charged to the solids and the resulting mixtures heated to 60° C. Where suspensions persisted, additional solvent was charged to achieve dissolution. Upon dissolution of the four mixtures, the solutions were clarified and aliquots containing ca. 30 mg of the compound were charged to four crystallisation tubes.
To each of the four aliquots was charged an anti-solvent (see Table 8), ca. 5 vol., at 60° C. and immediate observations were made. Observations were made after equilibration for 1 hour before additional anti-solvent, 5 vol., was charged to all mixtures. Where suspensions or immiscible mixtures had formed, no further anti-solvent was charged. To all solutions and hazes, additional anti-solvent up to 20 vol. total charge was added.
The mixtures were equilibrated at 60° C. for another hour before cooling to 25° C. over ca. 3 hours and equilibrated for ca. 14½ hours. […] Upon isolation, all solids were dried in vacuo under air for ca. 1 hour and then dried in the oven in vacuo at 45° C. for 70 hours.

Which “Solubility at 25° C.” value ([1]; 2-Chlorobutane) does the source give for NC(=O)c1nc(-c2c(Cl)cccc2Cl)oc1Nc1ccc(C(=O)N2CCS(=O)(=O)CC2)cc1 [Form A, 2-(2,6-dichlorophenyl)-5-[4-(1,1-dioxo-1,4-thiazinane-4-carbonyl)anilino]oxazole-4-carboxamide] here?
Its value is 290 µg/mL (≈ 0.569 mM).

What about the solubility ([1]; 4:1 IPA/water, 4:1 IPA/water) of the same compound?
The solubility was 7650 µg/mL (≈ 15 mM).

And the solubility ([1]; 4:1 MeCN/water, 4:1 MeCN/water)?
The solubility was 19800 µg/mL (≈ 38.8 mM).

What about the “Solubility at 25° C.” value ([1]; 4:1 THF/water) of the same compound?
Its value is over 67000 µg/mL.

What about the “Solubility at 25° C.” value ([1]; Anisole) of the same compound?
Its value is 10610 µg/mL (≈ 20.8 mM).

And the solubility ([1]; CPME)?
The solubility was 1870 µg/mL (≈ 3.67 mM).

And the “Solubility at 25° C.” value ([1]; Cyclohexane)?
The value was 10 µg/mL (≈ 0.0196 mM).

And the “Solubility at 25° C.” value ([1]; DCM)?
The value was 22830 µg/mL (≈ 44.8 mM).

What about the solubility ([1]; EtOAc) of the same compound?
The solubility was 6640 µg/mL (≈ 13 mM).

And the solubility ([1]; EtOH)?
Its solubility is 5200 µg/mL (≈ 10.2 mM).

And the solubility ([1]; IPA)?
Its solubility is 2450 µg/mL (≈ 4.81 mM).

And the solubility ([1]; MEK)?
Its solubility is 6080 µg/mL (≈ 11.9 mM).

What about the solubility ([1]; MIBK) of the same compound?
The solubility was 7400 µg/mL (≈ 14.5 mM).

And the solubility ([1]; MeCN)?
The solubility was 9160 µg/mL (≈ 18 mM).

What about the solubility ([1]; MeOH) of the same compound?
Its solubility is 2520 µg/mL (≈ 4.95 mM).

And the “Solubility at 25° C.” value ([1]; Nitromethane)?
The value was 20520 µg/mL (≈ 40.3 mM).

And the “Solubility at 25° C.” value ([1]; TBME)?
The value was 700 µg/mL (≈ 1.37 mM).

What about the “Solubility at 25° C.” value ([1]; THF) of the same compound?
The value was 33300 µg/mL (≈ 65.4 mM).

What about the “Solubility at 25° C.” value ([1]; Water) of the same compound?
The value was 60 µg/mL (≈ 0.118 mM).

What about the solubility ([1]; benzotrifluoride) of the same compound?
The solubility was 160 µg/mL (≈ 0.314 mM).

And the solubility ([1]; chlorobenzene)?
Its solubility is 1870 µg/mL (≈ 3.67 mM).

And the solubility ([1]; iPrOAc)?
Its solubility is 6960 µg/mL (≈ 13.7 mM).

What about the solubility ([1]; toluene) of the same compound?
Its solubility is 1120 µg/mL (≈ 2.2 mM).

And the “DVS total weight gain upon sorption” value ([2]; from 0 to 90% RH)?
The value was “ca. 3.25 wt %”.

And the “DVS weight reduction upon the first desorption” value ([2]; from 50 to 0% RH)?
Its value is “ca. 2.75 wt %”.

And the Observation on outcome ([3]; ID A1, THF/water, 4:1 10 vol., Cyclohexane, 25° C., 20 vol, 19 Hrs)?
The Observation on outcome was “Susp”.

What about the Observation on outcome ([3]; ID A1, THF/water, 4:1 10 vol., Cyclohexane, 60° C., 5 vol. anti-solvent, 1 Hr) of the same compound?
The Observation on outcome was “Susp”.

What about the Observation on outcome ([3]; ID A1, THF/water, 4:1 10 vol., Cyclohexane, 60° C., 5 vol. anti-solvent, Immediate) of the same compound?
Its Observation on outcome is “Gum”.

What about the Observation on outcome ([3]; ID A1, THF/water, 4:1 10 vol., Cyclohexane, 60° C., 10 vol. anti-solvent) of the same compound?
The Observation on outcome was “Susp”.

What about the Observation on outcome ([3]; ID A2, THF/water, 4:1 10 vol., Heptane, 25° C., 20 vol, 19 Hrs) of the same compound?
Its Observation on outcome is “Gummy”.

What about the Observation on outcome ([3]; ID A2, THF/water, 4:1 10 vol., Heptane, 60° C., 5 vol. anti-solvent, 1 Hr) of the same compound?
The Observation on outcome was “Susp”.

What about the Observation on outcome ([3]; ID A2, THF/water, 4:1 10 vol., Heptane, 60° C., 5 vol. anti-solvent, Immediate) of the same compound?
The Observation on outcome was “Gum”.

What about the Observation on outcome ([3]; ID A2, THF/water, 4:1 10 vol., Heptane, 60° C., 10 vol. anti-solvent) of the same compound?
The Observation on outcome was “Susp”.

What about the Observation on outcome ([3]; ID A3, THF/water, 4:1 10 vol., Benzotrifluoride, 25° C., 20 vol, 19 Hrs) of the same compound?
Its Observation on outcome is “Susp”.

What about the Observation on outcome ([3]; ID A3, THF/water, 4:1 10 vol., Benzotrifluoride, 60° C., 5 vol. anti-solvent, 1 Hr) of the same compound?
Its Observation on outcome is “Susp”.

What about the Observation on outcome ([3]; ID A3, THF/water, 4:1 10 vol., Benzotrifluoride, 60° C., 5 vol. anti-solvent, Immediate) of the same compound?
Its Observation on outcome is “Susp”.

And the Observation on outcome ([3]; ID A3, THF/water, 4:1 10 vol., Benzotrifluoride, 60° C., 10 vol. anti-solvent)?
The Observation on outcome was “Susp”.

And the Observation on outcome ([3]; ID A4, THF/water, 4:1 10 vol., 2-Chlorobutane, 25° C., 20 vol, 19 Hrs)?
Its Observation on outcome is “Susp”.

And the Observation on outcome ([3]; ID A4, THF/water, 4:1 10 vol., 2-Chlorobutane, 60° C., 5 vol. anti-solvent, 1 Hr)?
The Observation on outcome was “Susp”.

And the Observation on outcome ([3]; ID A4, THF/water, 4:1 10 vol., 2-Chlorobutane, 60° C., 5 vol. anti-solvent, Immediate)?
The Observation on outcome was “Susp”.

What about the Observation on outcome ([3]; ID A4, THF/water, 4:1 10 vol., 2-Chlorobutane, 60° C., 10 vol. anti-solvent) of the same compound?
Its Observation on outcome is “Susp”.

And the Observation on outcome ([3]; ID B1, THF 25 vol., Cyclohexane, 25° C., 20 vol, 19 Hrs)?
Its Observation on outcome is “Susp”.

And the Observation on outcome ([3]; ID B1, THF 25 vol., Cyclohexane, 60° C., 5 vol. anti-solvent, 1 Hr)?
The Observation on outcome was “Susp”.

And the Observation on outcome ([3]; ID B1, THF 25 vol., Cyclohexane, 60° C., 5 vol. anti-solvent, Immediate)?
Its Observation on outcome is “Gum→Soln”.

And the Observation on outcome ([3]; ID B1, THF 25 vol., Cyclohexane, 60° C., 10 vol. anti-solvent)?
The Observation on outcome was “Susp”.

And the Observation on outcome ([3]; ID B2, THF 25 vol., Heptane, 25° C., 20 vol, 19 Hrs)?
The Observation on outcome was “Susp”.

And the Observation on outcome ([3]; ID B2, THF 25 vol., Heptane, 60° C., 5 vol. anti-solvent, 1 Hr)?
The Observation on outcome was “Susp”.

What about the Observation on outcome ([3]; ID B2, THF 25 vol., Heptane, 60° C., 5 vol. anti-solvent, Immediate) of the same compound?
The Observation on outcome was “Gum→Soln”.

And the Observation on outcome ([3]; ID B2, THF 25 vol., Heptane, 60° C., 10 vol. anti-solvent)?
Its Observation on outcome is “Susp”.

And the Observation on outcome ([3]; ID B3, THF 25 vol., Benzotrifluoride, 25° C., 20 vol, 19 Hrs)?
The Observation on outcome was “Susp”.

And the Observation on outcome ([3]; ID B3, THF 25 vol., Benzotrifluoride, 60° C., 5 vol. anti-solvent, 1 Hr)?
The Observation on outcome was “Susp”.

What about the Observation on outcome ([3]; ID B3, THF 25 vol., Benzotrifluoride, 60° C., 5 vol. anti-solvent, Immediate) of the same compound?
The Observation on outcome was “Soln”.

What about the Observation on outcome ([3]; ID B3, THF 25 vol., Benzotrifluoride, 60° C., 10 vol. anti-solvent) of the same compound?
The Observation on outcome was “Susp”.

And the Observation on outcome ([3]; ID B4, THF 25 vol., 2-Chlorobutane, 25° C., 20 vol, 19 Hrs)?
The Observation on outcome was “Susp”.

And the Observation on outcome ([3]; ID B4, THF 25 vol., 2-Chlorobutane, 60° C., 5 vol. anti-solvent, 1 Hr)?
The Observation on outcome was “Susp”.
